Consider 20 molecules from patent US12157746B2, “Tetrahydro-1H-pyrazino[2,1-a]isoindolylquinoline compounds for the treatment of autoimmune disease” (F. HOFFMANN-LA ROCHE AG, priority 2018, dated 2024).

The target in this test is T1, human TLR9 (Homo sapiens, UniProt Q9NR96).
T1 sequence (Q9NR96 26-1032): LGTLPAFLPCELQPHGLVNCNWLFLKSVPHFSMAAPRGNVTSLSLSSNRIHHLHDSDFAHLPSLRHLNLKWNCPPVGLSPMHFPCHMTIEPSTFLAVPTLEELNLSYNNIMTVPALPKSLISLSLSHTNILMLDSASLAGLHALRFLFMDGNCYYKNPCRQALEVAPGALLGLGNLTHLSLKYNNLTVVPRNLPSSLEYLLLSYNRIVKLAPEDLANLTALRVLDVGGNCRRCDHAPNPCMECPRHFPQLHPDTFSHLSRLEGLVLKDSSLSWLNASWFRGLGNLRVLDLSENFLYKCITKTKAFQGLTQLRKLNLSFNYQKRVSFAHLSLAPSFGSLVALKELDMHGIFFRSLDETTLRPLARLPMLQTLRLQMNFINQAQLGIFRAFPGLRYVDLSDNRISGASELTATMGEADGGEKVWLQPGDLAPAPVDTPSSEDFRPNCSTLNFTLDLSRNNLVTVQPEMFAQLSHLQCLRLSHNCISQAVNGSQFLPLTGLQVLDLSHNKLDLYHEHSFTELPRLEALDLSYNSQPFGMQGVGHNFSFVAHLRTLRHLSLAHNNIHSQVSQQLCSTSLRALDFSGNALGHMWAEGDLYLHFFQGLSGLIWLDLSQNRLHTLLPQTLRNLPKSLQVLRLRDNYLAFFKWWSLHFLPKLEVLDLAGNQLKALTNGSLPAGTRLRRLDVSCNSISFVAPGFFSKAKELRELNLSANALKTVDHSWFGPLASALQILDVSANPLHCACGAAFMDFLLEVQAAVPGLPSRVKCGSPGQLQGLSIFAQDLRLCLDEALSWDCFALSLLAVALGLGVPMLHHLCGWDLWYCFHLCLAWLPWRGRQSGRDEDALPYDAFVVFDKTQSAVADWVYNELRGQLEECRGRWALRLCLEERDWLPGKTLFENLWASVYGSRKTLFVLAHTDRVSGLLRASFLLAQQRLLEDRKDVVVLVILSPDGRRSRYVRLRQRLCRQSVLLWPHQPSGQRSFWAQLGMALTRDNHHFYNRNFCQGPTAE
Kind of test: HEK293-Blue-hTLR-9 cells assay. Type of test: cell-based. The following applies: HEK293-Blue-hTLR9 cells, ODN2006 stimulation, 20 hrs, SEAP reporter; read-out: HEK/hTLR9 IC50. In a few lines: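 Antagonist mode in HEK293-Blue hTLR9 reporter cells (SEAP under NF-κB/AP-1 sites), stimulated with ODN2006 added from a 20 uM solution. Serially diluted compound (1% DMSO final) was incubated 20 hrs at 37° C. Supernatant SEAP was developed with QUANTI-Blue for 2 h at 37° C and read at 620˜655 nm.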
On to `C[C@@H]1CN(c2ccc(C#N)c3ncccc23)C[C@@H]2c3ccc(NC[C@H]4CNCCO4)cc3CN12` [Example 59, 5-[(4R,10bS)-4-methyl-8-[[(2R)-morpholin-2-yl]methylamino]-3,4,6,10b-tetrahydro-1H-pyrazino[2,1-a]isoindol-2-yl]quinoline-8-carbonitrile], for which the IC50 was found to be 73.5 nM. The value for `C[C@@H]1CN(c2ccc(C#N)c3ncccc23)C[C@@H]2c3cc(F)c(N4C[C@H](N)[C@@](C)(O)C4)cc3CN12` [Example 83, 5-[(4R,10bS)-8-[(3S,4S)-4-amino-3-hydroxy-3-methyl-pyrrolidin-1-yl]-9-fluoro-4-methyl-3,4,6,10b-tetrahydro-1H-pyrazino[2,1-a]isoindol-2-yl]quinoline-8-carbonitrile] was 168 nM; that for `CO[C@H]1CNC[C@@H]1N(C)c1ccc2c(c1)CN1[C@H](C)CN(c3ccc(C#N)c4ncccc34)C[C@H]21` [Example 64, 5-[(4R,10bS)-8-[[(3S,4S)-4-methoxypyrrolidin-3-yl]-methyl-amino]-4-methyl-3,4,6,10b-tetrahydro-1H-pyrazino[2,1-a]isoindol-2-yl]quinoline-8-carbonitrile] was 125 nM.

Consider `C[C@@H]1CN(c2ccc(C#N)c3ncccc23)C[C@@H]2c3ccc(NC[C@@H]4C[C@H](F)CN4)cc3CN12` [Example 70, 5-[(4R,10bS)-8-[[(2S,4S)-4-fluoropyrrolidin-2-yl]methylamino]-4-methyl-3,4,6,10b-tetrahydro-1H-pyrazino[2,1-a]isoindol-2-yl]quinoline-8-carbonitrile], for which the IC50 turned out to be 74 nM.

For `C[C@@H]1CN(c2ccc(C#N)c3ncccc23)C[C@@H]2c3ccc(NC[C@@H]4CNCCO4)cc3CN12` [Example 58, 5-[(4R,10bS)-4-methyl-8-[[(2S)-morpholin-2-yl]methylamino]-3,4,6,10b-tetrahydro-1H-pyrazino[2,1-a]isoindol-2-yl]quinoline-8-carbonitrile], the IC50 was 84.3 nM.

As for `CO[C@H]1CNCC[C@H]1Nc1ccc2c(c1)CN1[C@H](C)CN(c3ccc(C#N)c4ncccc34)C[C@H]21` [Example 66, 5-[(4R,10bS)-8-[[(3S,4R)-3-methoxy-4-piperidyl]amino]-4-methyl-3,4,6,10b-tetrahydro-1H-pyrazino[2,1-a]isoindol-2-yl]quinoline-8-carbonitrile], the IC50 is 141 nM.

As for `C[C@@H]1CN(c2ccc(C(F)(F)F)c3nccnc23)C[C@@H]2c3ccc(N[C@H]4CNC[C@H]4F)cc3CN12` [Example 77, (4R,10bS)—N-[(3S,4R)-4-fluoropyrrolidin-3-yl]-4-methyl-2-[8-(trifluoromethyl)quinoxalin-5-yl]-3,4,6,10b-tetrahydro-1H-pyrazino[2,1-a]isoindol-8-amine], the IC50 came to 141 nM. The value for `C[C@@H]1CN(c2ccc(C#N)c3ncccc23)C[C@@H]2c3ccc(N[C@@H]4CNCCOC4)cc3CN12` [Example 56A, 5-[(4R,10bS)-4-methyl-8-[[(6R)-1,4-oxazepan-6-yl]amino]-3,4,6,10b-tetrahydro-1H-pyrazino[2,1-a]isoindol-2-yl]quinoline-8-carbonitrile] was 83 nM; that for `C[C@@H]1CN(c2ccc(C#N)c3ncccc23)C[C@@H]2c3cc(F)c(N4CC5(CNC5)C4)cc3CN12` [Example 84, 5-[(4R,10bS)-8-(2,6-diazaspiro[3.3]heptan-2-yl)-9-fluoro-4-methyl-3,4,6,10b-tetrahydro-1H-pyrazino[2,1-a]isoindol-2-yl]quinoline-8-carbonitrile] was 186 nM; that for `C[C@@H]1CN(c2ccc(C#N)c3ncccc23)C[C@@H]2c3ccc(N[C@H]4CNCCOC4)cc3CN12` [Example 56B, 5-[(4R,10bS)-4-methyl-8-[[(6S)-1,4-oxazepan-6-yl]amino]-3,4,6,10b-tetrahydro-1H-pyrazino[2,1-a]isoindol-2-yl]quinoline-8-carbonitrile] was 92.1 nM.

Consider `CO[C@@H]1CNC[C@H]1Nc1cc2c(cc1C)[C@H]1CN(c3ccc(C#N)c4ncccc34)C[C@@H](C)N1C2` [Example 63, 5-[(4R,10bS)-8-[[(3R,4R)-4-methoxypyrrolidin-3-yl]amino]-4,9-dimethyl-3,4,6,10b-tetrahydro-1H-pyrazino[2,1-a]isoindol-2-yl]quinoline-8-carbonitrile], for which the IC50 turned out to be 72.7 nM.

With `[2H]c1ccc2c(N3C[C@@H](C)N4Cc5cc(N6CC7(CNCCO7)C6)ccc5[C@H]4C3)ccc(C#N)c2n1` [Example 90, 5-[(4R,10bS)-4-methyl-8-(5-oxa-2,8-diazaspiro[3.5]nonan-2-yl)-3,4,6,10b-tetrahydro-1H-pyrazino[2,1-a]isoindol-2-yl]-2-deuterio-quinoline-8-carbonitrile], the IC50 turned out to be 164 nM. The result for `Cc1ccc(N2C[C@@H](C)N3Cc4cc(N[C@H]5CNC[C@H]5F)ccc4[C@H]3C2)c2nccnc12` [Example 76, (4R,10bS)—N-[(3S,4R)-4-fluoropyrrolidin-3-yl]-4-methyl-2-(8-methylquinoxalin-5-yl)-3,4,6,10b-tetrahydro-1H-pyrazino[2,1-a]isoindol-8-amine] reads 150 nM; that for `C[C@@H]1CN(c2ccc(C#N)c3ncccc23)C[C@@H]2c3ccc(N4C[C@H]5CNCCN5C4=O)cc3CN12` [Example 72, 5-[(4R,10bS)-8-[(8aR)-3-oxo-1,5,6,7,8,8a-hexahydroimidazo[1,5-a]pyrazin-2-yl]-4-methyl-3,4,6,10b-tetrahydro-1H-pyrazino[2,1-a]isoindol-2-yl]quinoline-8-carbonitrile], 108 nM. The value for `C[C@@H]1CN(c2ccc(C#N)c3ncsc23)C[C@@H]2c3ccc(N[C@H]4CNC[C@H]4F)cc3CN12` [Example 78, 7-[(4R,10bS)-8-[[(3S,4R)-4-fluoropyrrolidin-3-yl]amino]-4-methyl-3,4,6,10b-tetrahydro-1H-pyrazino[2,1-a]isoindol-2-yl]-1,3-benzothiazole-4-carbonitrile] was 83.6 nM. The result for `C[C@@H]1CN(c2ccc(C#N)c3ncccc23)C[C@@H]2c3cccc(N[C@H]4CNC[C@H]4F)c3CN12` [Example 81, 5-[(4R,10bS)-7-[[(3S,4R)-4-fluoropyrrolidin-3-yl]amino]-4-methyl-3,4,6,10b-tetrahydro-1H-pyrazino[2,1-a]isoindol-2-yl]quinoline-8-carbonitrile] reads 126 nM; that for `C[C@@H]1CN(c2ccc(C#N)c3ncccc23)C[C@@H]2c3ccc(N4C[C@@H]5CNCCN5C4=O)cc3CN12` [Example 71, 5-[(4R,10bS)-8-[(8aS)-3-oxo-1,5,6,7,8,8a-hexahydroimidazo[1,5-a]pyrazin-2-yl]-4-methyl-3,4,6,10b-tetrahydro-1H-pyrazino[2,1-a]isoindol-2-yl]quinoline-8-carbonitrile], 115 nM; that for `C[C@@H]1CN(c2ccc(C#N)c3ncccc23)C[C@@H]2c3ccc(OC[C@@H]4C[C@H](F)CN4)cc3CN12` [Example 74, 5-[(4R,10bS)-8-[[(2S,4S)-4-fluoropyrrolidin-2-yl]methoxy]-4-methyl-3,4,6,10b-tetrahydro-1H-pyrazino[2,1-a]isoindol-2-yl]quinoline-8-carbonitrile], 136 nM.

`C[C@@H]1CN(c2ccc(C#N)c3ncccc23)C[C@@H]2c3cccc(NCCN4CC[C@H](O)C4)c3CN12` [Example 80, 5-[(4R,10bS)-7-[2-[(3S)-3-hydroxypyrrolidin-1-yl]ethylamino]-4-methyl-3,4,6,10b-tetrahydro-1H-pyrazino[2,1-a]isoindol-2-yl]quinoline-8-carbonitrile]: the IC50 was determined as 63.6 nM. The result for `C[C@@H]1CN(c2ccc(C#N)c3ncccc23)C[C@@H]2c3ccc(NCC4COCCN4)cc3CN12` (stereo partly drawn) [Example 57, 5-[(4R,10bS)-4-methyl-8-(morpholin-3-ylmethylamino)-3,4,6,10b-tetrahydro-1H-pyrazino[2,1-a]isoindol-2-yl]quinoline-8-carbonitrile] reads 105 nM.
